Test results: ChEMBL document CHEMBL3826905, “1'-Homonucleosides and their structural analogues: A review” (Eur J Med Chem, 2016)
pEC50, pIC50, pKd, pKi: −log10 of the molar value. In brackets after ≈: the same amount, converted by molar mass.

How the values were obtained:
[1] = Cytostatic activity against mouse L1210/0 cells; format: functional, cell-based
MOLT-4 = test: Cytostatic activity against human Molt4/C8 cells; format: functional, cell-based
CCRF-CEM [2] = test: Cytostatic activity against human CEM cells; format: functional
[3] = Antiproliferative activity against human Molt4/C8 cells; format: functional, cell-based; settings: MOLT-4
[4] = tested on: unidentified influenza virus; test: Antiviral activity against Influenza virus; format: functional
[5] = Binding affinity to HSV1 uracil-DNA glycosylase after 30 mins by electrophoretic mobility shift assay; set-up: species or system Human alphaherpesvirus 1
Influenza A virus = test: Antiviral activity against Influenza A virus; format: functional, organism-based
Human betaherpesvirus 5 = test: Antiviral activity against HCMV infected in HEL cells assessed as inhibition of virus-induced cytopathic effect after 6 days; format: functional, organism-based; settings: Human betaherpesvirus 5, HEL, 144 h
Vaccinia virus = test: Antiviral activity against Vaccinia virus; format: functional, organism-based; settings: Orthopoxvirus vaccinia
[6] = tested on: Vesicular stomatitis virus; test: Antiviral activity against Vesicular stomatitis virus; format: functional, organism-based
[7] = tested on: Human immunodeficiency virus 1; test: Antiviral activity against HIV1 infected in human MT4 cells assessed as inhibition of virus-induced cytopathic effect; format: functional, organism-based; settings: Human immunodeficiency virus 1, MT4
Human alphaherpesvirus 1 = test: Antiviral activity against Herpes simplex virus 1 KOS assessed as inhibition of virus-induced cytopathic effect by cell based assay; format: functional; settings: Human alphaherpesvirus 1, KOS
Human alphaherpesvirus 2 = test: Antiviral activity against Herpes simplex virus 2 G assessed as inhibition of virus-induced cytopathic effect by cell based assay; format: functional; settings: Human alphaherpesvirus 2, strain G
[8] = Inhibition of Trichomonas vaginalis purine nucleoside phosphorylase using […] as substrate by xanthine oxidase coupled enzyme assay
[9] = target: T1, Inosine-uridine preferring nucleoside hydrolase (Crithidia fasciculata, UniProt Q27546); test: Inhibition of Crithidia fasciculata inosine-uridine nucleoside hydrolase expressed in Escherichia coli using p-nitrophenyl beta-D-ribofuranoside as substrate by xanthine oxidase coupled enzyme assay
T1 sequence (Q27546 whole entry): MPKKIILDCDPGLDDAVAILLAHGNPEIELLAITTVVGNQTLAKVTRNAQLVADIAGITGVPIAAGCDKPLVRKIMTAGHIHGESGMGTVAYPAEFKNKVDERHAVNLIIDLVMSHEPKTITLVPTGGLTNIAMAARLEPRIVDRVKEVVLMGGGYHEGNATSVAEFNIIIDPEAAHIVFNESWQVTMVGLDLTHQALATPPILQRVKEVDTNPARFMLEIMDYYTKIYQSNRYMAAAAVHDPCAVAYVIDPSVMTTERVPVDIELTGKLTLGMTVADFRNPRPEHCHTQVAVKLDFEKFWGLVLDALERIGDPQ

[10] = target: T2, Inosine-adenosine-guanosine-nucleoside hydrolase (Trypanosoma brucei brucei, UniProt O15727); test: Inhibition of Trypanosoma brucei brucei inosine-adenosine-guanosine nucleoside hydrolase expressed in Escherichia coli
T2 sequence (O15727 whole entry): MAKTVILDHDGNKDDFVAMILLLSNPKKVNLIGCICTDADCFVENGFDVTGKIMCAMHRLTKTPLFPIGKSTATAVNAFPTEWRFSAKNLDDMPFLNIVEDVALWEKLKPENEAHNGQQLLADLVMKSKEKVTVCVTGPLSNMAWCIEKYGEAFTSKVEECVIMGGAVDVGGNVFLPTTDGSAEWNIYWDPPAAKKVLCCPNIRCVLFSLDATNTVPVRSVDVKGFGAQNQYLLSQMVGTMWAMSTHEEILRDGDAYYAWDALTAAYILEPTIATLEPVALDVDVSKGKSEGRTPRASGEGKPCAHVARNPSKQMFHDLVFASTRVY

[11] = Cytotoxicity against human E6SM cells assessed as alteration in cell morphology by microscopic method; format: cell-based
[12] = Cytotoxicity against human CEM/0 cells assessed as reduction in cell viability; format: cell-based, CCRF-CEM
[13] = Cytotoxicity against African green monkey Vero cells assessed as alteration in cell morphology by microscopic method; format: cell-based; settings: chlorocebus sabaeus
[14] = Cytotoxicity against HEL cells assessed as reduction in cell viability; format: cell-based; settings: human
[15] = Cytotoxicity against human HeLa cells assessed as alteration in cell morphology by microscopic method; format: cell-based
Hepatitis C virus = test: Antiviral activity against Hepatitis C virus; format: functional, organism-based, Hepacivirus hominis
CCRF-CEM [16] = test: Growth inhibition of human CCRF-CEM cells; format: functional, cell-based
[17] = Cytotoxicity against HEL cells; format: cell-based; settings: human
[18] = Cytotoxicity against human HeLa cells; format: cell-based
[19] = Antiproliferative activity against mouse L1210/0 cells; format: functional, cell-based
[20] = Cytotoxicity against human E6SM cells; format: cell-based
[21] = Cytotoxicity against MDCK cells; format: cell-based, Canis lupus familiaris; settings: dog
[22] = Cytotoxicity against African green monkey Vero cells; format: cell-based; settings: chlorocebus sabaeus
[23] = Cytotoxicity against human CEM/0 cells; format: cell-based, CCRF-CEM

`CC1(C)[C@@H](CO)CC[C@@]1(C)Cn1cnc2c(Cl)ncnc21` gave an Activity [1] of 13 µg/mL, an Activity (MOLT-4) of 9 µg/mL and an Activity (CCRF-CEM [2]) of 14 µg/mL.

For `CC1(C)[C@@H](Cn2cnc3c(Cl)ncnc32)CC[C@@]1(C)CO`, the IC50 [3] was 3.8 µg/mL (≈ 12.3 µM) and the MIC [4] was 10 µg/mL (≈ 32.4 µM).

Compound `O=c1ccn(C[C@H]2C[C@H](O)[C@@H](CO)O2)c(=O)[nH]1` has a pKd [5] of 6.80 and an IC50 (Influenza A virus) of 94.2 µg/mL (≈ 389 µM).

In the case of `Nc1ncnc2c1ncn2CC1(CO)CC=CC1`, the pEC50 (Human betaherpesvirus 5) was 4.11.

For `Cc1ccc(S(=O)(=O)OC[C@H]2OC[C@@H]3OCO[C@@H]32)cc1`, the IC50 (Vaccinia virus) was greater than 400 µg/mL and the IC50 [6] was greater than 400 µg/mL.

With `Nc1ccn(CC2(CO)CC=CC2)c(=O)n1` the pEC50 [7] was 4.25.

With `Nc1nc2c(ncn2C[C@H]2C[C@H](O)[C@@H](CO)O2)c(=O)[nH]1` the MIC (Human alphaherpesvirus 1) was 5 µg/mL (≈ 17.8 µM) and the MIC (Human alphaherpesvirus 2) was 5 µg/mL (≈ 17.8 µM).

Work on `Nc1ncnc2c1ncn2C[C@@H]1N[C@H](CO)[C@@H](O)[C@H]1O` yielded a pKi [8] of less than 5.00, a pKi [9] of 5.27 and a pKi [10] of 5.44.

`Nc1nc(Cl)c2ncn(C[C@H]3CC[C@@H](CO)C3)c2n1` gave a CC50 [11] of 1 µg/mL (≈ 3.55 µM), a CC50 [12] of 1 µg/mL (≈ 3.55 µM) and a CC50 [13] of 1 µg/mL (≈ 3.55 µM). For the same compound, the CC50 [14] was 1 µg/mL (≈ 3.55 µM) and the CC50 [15] was 1 µg/mL (≈ 3.55 µM).

`Clc1ncnc2c1ncn2CC12CCC(O1)c1cc3ccccc3cc12` (stereo unspecified) gave a pEC50 (Hepatitis C virus) of 5.20 and a pIC50 (CCRF-CEM [16]) of 5.24.

For `Nc1ncnc2c1ncn2C[C@H]1CC[C@@H](CO)C1`, the CC50 [17] was 80 µg/mL (≈ 323 µM), the CC50 [18] was 80 µg/mL (≈ 323 µM) and the IC50 [19] was 73 µg/mL (≈ 295 µM). For the same compound, the IC50 [3] was 73 µg/mL (≈ 295 µM), the CC50 [20] was 80 µg/mL (≈ 323 µM) and the CC50 [21] was 80 µg/mL (≈ 323 µM). The CC50 [22] was 80 µg/mL (≈ 323 µM) and the CC50 [23] was 80 µg/mL (≈ 323 µM).
